# Legend:
# [1] = Spontaneous dephosphorylation of phosphoryloxytryptamines in 100 millimolar phosphate buffers, 85 degrees Celsius, one hour, HPLC at 220 nanometers
# [2] = cited from earlier work
# laccase enzyme = test: Colorimetric assay with a syringaldazine substrate for residual laccase enzyme activity; type: biochemical, Psilocybe cubensis; settings: relative to the water control
# Text: The denaturation of relevant laccase enzymes may be assessed, for example, by performing a colorimetric assay with a laccase enzyme substrate such as syringaldazine or 2,2′-azino-bis(3-ethylbenzothiazoline-6-sulfonate) (ABTS). Syringaldazine comprises an aromatic structure with pendant hydroxyl groups, which is chemically similar to the indole of a hydroxytryptamine, and ABTS comprises a benzothiazoline, which is chemically similar to the indole of tryptamines generally. Colorimetric assays performed with a syringaldazine or ABTS substrate therefore provide suitable methods to assess laccase activity that are relevant to this disclosure.
# (§1) 20 milliliters of 6 molar guanidinium chloride in distilled, deionized water and buffered to a pH of 6.0 with 50 millimolar phosphate buffer is added to each of three opaque 50-milliliter polypropylene centrifuge tubes. 20 milliliters of 8 molar urea in distilled, deionized water and buffered to a pH of 6.0 with 50 millimolar phosphate buffer is added to each of three opaque 50-milliliter polypropylene centrifuge tubes. 20 milliliters of 4 molar ammonium sulfate in distilled, deionized water and buffered to a pH of 6.0 with 50 millimolar MES buffer is added to each of three opaque 50-milliliter polypropylene centrifuge tubes. 20 milliliters of 2 percent sodium dodecyl sulfate (w/v) in distilled, deionized water and buffered to a pH of 6.0 with 50 millimolar phosphate buffer is added to each of three opaque 50-milliliter polypropylene centrifuge tubes. 20 milliliters of 1 percent Triton X-100 (v/v) in distilled, deionized water and buffered to a pH of 6.0 with 50 millimolar phosphate buffer is added to each of three opaque 50-milliliter polypropylene centrifuge tubes. 20 milliliters of 2 percent octyl glucoside (w/v) in distilled, deionized water and buffered to a pH of 6.0 with 50 millimolar phosphate buffer is added to each of three opaque 50-milliliter polypropylene centrifuge tubes. 20 milliliters of distilled, deionized water is buffered to a pH of 6.0 with 50 millimolar phosphate buffer and added to each of three opaque 50-milliliter polypropylene centrifuge tubes. Each of the centrifuge tubes is placed on ice.
# (§2) The stipes of three freshly-harvested Psilocybe cubensis fruiting bodies are each cut into seven sections of approximately 1 gram each, weighed, and immediately placed into one of the polypropylene tubes such that a section of each stipe is placed in each of the guanidinium, urea, ammonium sulfate, sodium dodecyl sulfate, Triton X-100, and octyl glucoside solutions as well as the water control. Each of the samples is homogenized and then sonicated within the polypropylene tubes. The polypropylene tubes are then loaded onto an orbital shaker in a cold room at 4 degrees Celsius and mixed at 450 revolutions per minute for four hours. After mixing, the samples are placed on ice.
# (§3) The samples are centrifuged, and the supernatants are analyzed by HPLC as described in Example 1. The molecular weights of the analytes are determined by electrospray ionization mass spectroscopy (ESI-MS) operating in positive ion mode. The supernatants are also used for a colorimetric assay with a para-nitrophenyl phosphate substrate to identify residual phosphatase enzyme activity and for a colorimetric assay with a syringaldazine substrate to identify any residual laccase enzyme activity.
# phosphatase enzyme = test: Colorimetric assay with a para-nitrophenyl phosphate substrate for residual phosphatase enzyme activity; type: biochemical, Psilocybe cubensis; settings: relative to the water control
# Text: The denaturation of relevant phosphatase enzymes may be assessed, for example, by performing a colorimetric assay with a para-nitrophenyl phosphate substrate. Para-nitrophenyl phosphate comprises a phosphorylated aromatic, which is chemically similar to the phosphorylated indole of a phosphoryloxytryptamine. Colorimetric assays performed with a para-nitrophenyl phosphate substrate therefore provide suitable methods to assess […] that are relevant to this disclosure.
# as §1, §2, §3
# [3] = cited from earlier work; remark: listed apart in the source
# [4] = pH of 2.0 relative to pH of 3.0
# [5] = pH of 7.0 relative to pH of 6.0
# [6] = pH of 3.0 relative to pH of 2.0
# [7] = pH of 6.0 relative to pH of 7.0
molecule,measurement,setting,value
"NCCc1c[nH]c2cccc(O)c12 [4-HT, 3-(2-aminoethyl)-1H-indol-4-ol]",absorbance detected for the hydroxytryptamine (dephosphorylation product),[1]; [4],greater absorbance
same,absorbance detected for the hydroxytryptamine (dephosphorylation product),[1]; [5],greater absorbance
"C[N+](C)(C)CCc1c[nH]c2cccc(O)c12 [4-hydroxy-TMT, [2-(4-hydroxy-1H-indol-3-yl)ethyl]-trimethylazanium]",absorbance detected for the hydroxytryptamine (dephosphorylation product),[1]; [4],greater absorbance
same,absorbance detected for the hydroxytryptamine (dephosphorylation product),[1]; [5],greater absorbance
"O=C(O)Cc1c[nH]c2ccccc12 [Indole-3-acetic acid, indole-3-acetic acid]",solubility in water,[2],insoluble in water
"C[N+](C)(C)CCc1c[nH]c2cccc(OP(=O)(O)O)c12 [aeruginascin, [2-(4-phosphonooxy-1H-indol-3-yl)ethyl]-trimethylazanium]",absorbance detected for the phosphoryloxytryptamine,[1]; [6],Greater absorbance
same,absorbance detected for the phosphoryloxytryptamine,[1]; [7],Greater absorbance
N.N.O=S(=O)(O)O [ammonium sulfate],laccase enzyme activity in the colorimetric assay,laccase enzyme,significantly less laccase enzyme activity
same,phosphatase enzyme activity in the colorimetric assay,phosphatase enzyme,significantly less phosphatase enzyme activity
"CNCCc1c[nH]c2cccc(OP(=O)(O)O)c12 [baeocystin, [2-(4-phosphonooxy-1H-indol-3-yl)ethyl]-methylazanium]",absorbance detected for the phosphoryloxytryptamine,[1]; [6],Greater absorbance
same,absorbance detected for the phosphoryloxytryptamine,[1]; [7],Greater absorbance
"Cl.N=C(N)N [guanidinium, guanidinium chloride]",laccase enzyme activity in the colorimetric assay,laccase enzyme,significantly less laccase enzyme activity
same,phosphatase enzyme activity in the colorimetric assay,phosphatase enzyme,significantly less phosphatase enzyme activity
"NCCc1c[nH]c2cccc(OP(=O)(O)O)c12 [norbaeocystin, 2-(4-phosphonooxy-1H-indol-3-yl)ethylazanium]",absorbance detected for the phosphoryloxytryptamine,[1]; [6],Greater absorbance
same,absorbance detected for the phosphoryloxytryptamine,[1]; [7],Greater absorbance
"CNCCc1c[nH]c2cccc(O)c12 [norpsilocin, 3-[2-(methylamino)ethyl]-1H-indol-4-ol]",absorbance detected for the hydroxytryptamine (dephosphorylation product),[1]; [4],greater absorbance
same,absorbance detected for the hydroxytryptamine (dephosphorylation product),[1]; [5],greater absorbance
"CCCCCCCCO[C@@H]1O[C@H](CO)[C@@H](O)[C@H](O)[C@H]1O [octyl glucoside, octyl β-D-glucopyranoside]",laccase enzyme activity in the colorimetric assay,laccase enzyme,significantly less laccase enzyme activity
same,phosphatase enzyme activity in the colorimetric assay,phosphatase enzyme,significantly less phosphatase enzyme activity
"CN(C)CCc1c[nH]c2cccc(O)c12 [psilocin, 3-[2-(dimethylamino)ethyl]-1H-indol-4-ol]",absorbance detected for the hydroxytryptamine (dephosphorylation product),[1]; [4],greater absorbance
same,absorbance detected for the hydroxytryptamine (dephosphorylation product),[1]; [5],greater absorbance
CN(C)CCc1c[nH]c2cccc(OP(=O)(O)O)c12 [psilocybin],pKa of the azanium of psilocybin,[3]; conjugate acid of the amino,about 10.4
same,pKa of the dihydrogen phosphate of psilocybin (lowest pKa),[3]; first phosphate pKa,about 1.3
CCCCCCCCCCCCOS(=O)(=O)[O-].[Na+] [sodium dodecyl sulfate],laccase enzyme activity in the colorimetric assay,laccase enzyme,significantly less laccase enzyme activity
same,phosphatase enzyme activity in the colorimetric assay,phosphatase enzyme,significantly less phosphatase enzyme activity
OCCc1c[nH]c2ccccc12 [tryptophol],solubility in water,[2],insoluble in water
NC(N)=O [urea],laccase enzyme activity in the colorimetric assay,laccase enzyme,significantly less laccase enzyme activity
same,phosphatase enzyme activity in the colorimetric assay,phosphatase enzyme,significantly less phosphatase enzyme activity
Chitin,solubility in water,[2],insoluble in water
"polyethylene glycol 4-(2,4,4-trimethylpent-2-yl)phenyl ether [Triton X-100]",laccase enzyme activity in the colorimetric assay,laccase enzyme,significantly less laccase enzyme activity
same,phosphatase enzyme activity in the colorimetric assay,phosphatase enzyme,significantly less phosphatase enzyme activity

# Source: patent publication US12497637B1, “Stabilization of tryptamines by denaturing enzymes, optimizing ionization states, and controlling confounding variables” (Convergent Health Sciences LLC, priority 2025, dated 2025)
